For three molecules, IC50 results are on record in patent publication US20070078100A1, “Methods of detecting poly(adp-ribose) polymerase and other nad+ utilizing enzymes” (THE BOARD OF TRUSTEES OF THE UNIVERSITY OF ILLINOI, priority 2003, published 2007).

Experiment [1] has as its target T1, PARP-1 (Homo sapiens, UniProt P09874).
T1 construct: purchased Trevigen
The experiment can be described thus: NAD+ quantitation (fluorescence) assay, determination of IC50 values for PARP inhibitors. It is filed as biochemical. How it is done:
This assay was also applied to determine the IC50 values of the known PARP inhibitors. For these determinations, the inhibitors, at a variety of concentrations, were added to a 96-well plate containing NAD+ and nicked DNA. PARP-1 was then added, and the reaction was allowed to proceed for 15 min. At this point acetophenone/KOH was added, which serves to both quench the PARP-1 enzymatic activity and to begin the conversion of any remaining NAD+ to the fluorophore. After 10 min at 4° C. in the presence of acetophenone/KOH, a solution of formic acid was added and the mixture was incubated in a 110° C. oven for 5 minutes.
In addition, only very low levels of NAD+ were used in this assay (100 nM). […] However, NAD+ concentrations up to 100 μM can also be used, if one desires a direct correlation with other assay methods that typically use micromolar amounts of NAD+ substrate.
The reaction was initiated by adding 10 μL of PARP at a concentration of 10 μg/mL (in PARP assay buffer), bringing the final concentration to 2 μg/mL PARP, 10 μg/mL DNA, 100 nM NAD+ with varying concentrations of inhibitors in a total volume of 50 μL. The plate was incubated for 15 min at room temperature and the amount of NAD+ was then determined by the fluorescence method as described above for the calibration curve. The average value of control wells containing only NAD+ was set as 0% PARP activity, while the average value of control wells containing NAD+ and PARP (but no inhibitor) was set as 100% PARP activity. […] All data points in FIG. 8 were determined in quadruplicate.
Graphs were analyzed using Table Curve 2D. NAD+ standard curves were fitted with a least squares linear model and inhibitor curves were fitted with a logistic dose response curve.

Experiment [2] addresses PARP (Homo sapiens, UniProt P09874). The note with it: literature values, references in brackets; cited from earlier work.
The mark [3] stands for this setting: 100 nM NAD+, 2 μg/mL PARP, 10 μg/mL DNA, 15 min at room temperature, 96-well plate, read-out: IC50 value.

SMILES strings stand for the structures. Like-named read-outs stand apart in the source and are kept apart here.

T1 sequence (P09874 whole entry): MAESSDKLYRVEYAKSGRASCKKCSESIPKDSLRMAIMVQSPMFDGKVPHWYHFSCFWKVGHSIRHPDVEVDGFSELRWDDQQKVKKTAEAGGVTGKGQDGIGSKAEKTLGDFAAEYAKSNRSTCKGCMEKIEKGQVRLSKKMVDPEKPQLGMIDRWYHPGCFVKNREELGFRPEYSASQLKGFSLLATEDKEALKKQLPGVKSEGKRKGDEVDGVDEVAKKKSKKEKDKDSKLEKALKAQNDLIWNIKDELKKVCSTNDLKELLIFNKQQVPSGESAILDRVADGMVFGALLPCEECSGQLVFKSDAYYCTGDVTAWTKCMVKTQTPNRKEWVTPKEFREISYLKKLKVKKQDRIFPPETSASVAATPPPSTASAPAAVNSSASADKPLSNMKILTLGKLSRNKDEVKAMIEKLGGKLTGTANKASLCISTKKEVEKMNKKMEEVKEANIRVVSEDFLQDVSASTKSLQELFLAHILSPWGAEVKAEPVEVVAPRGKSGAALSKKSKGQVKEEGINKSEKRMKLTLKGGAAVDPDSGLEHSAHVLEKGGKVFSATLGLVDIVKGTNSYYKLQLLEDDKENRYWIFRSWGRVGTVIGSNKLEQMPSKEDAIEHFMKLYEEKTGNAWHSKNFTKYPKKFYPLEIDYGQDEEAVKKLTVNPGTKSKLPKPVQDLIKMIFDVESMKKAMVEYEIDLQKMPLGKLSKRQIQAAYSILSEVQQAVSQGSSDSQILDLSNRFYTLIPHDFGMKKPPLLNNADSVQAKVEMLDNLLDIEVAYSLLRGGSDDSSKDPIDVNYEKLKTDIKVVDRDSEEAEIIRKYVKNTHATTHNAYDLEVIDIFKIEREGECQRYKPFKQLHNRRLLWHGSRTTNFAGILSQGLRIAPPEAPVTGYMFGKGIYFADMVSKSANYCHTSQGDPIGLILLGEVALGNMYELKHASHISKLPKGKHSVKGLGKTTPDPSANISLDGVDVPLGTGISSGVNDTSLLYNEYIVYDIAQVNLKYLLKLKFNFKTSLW
Sequence of PARP (P09874 whole entry): as above

For the molecule `O=c1[nH]c2ccccc2c2ccccc12` [6(5H)-phenanthridinons, 6(5H)-phenanthridinone], the IC50 in experiment [1] (setting [3]) was found to be 305 nM. In turn, `O=C1NCCc2c(OCCCCN3CCCCC3)cccc21` [DPQ, 3,4-dihydro-5-[4-(1-piperidinyl)butoxy]-1 (2B)-isoquinolinone] displayed an IC50 in experiment [1] of 37 nM.

For the molecule `NC(=O)c1ccccc1` [benzamide], the half-maximal inhibitory concentration (IC50) in experiment [1] (setting [3]) is 1440 nM; in experiment [2] it was 1300 nM.

As a reminder, the IC50 is the point on the concentration scale where inhibition reaches its midpoint.
